Source: article PMC8395040 (International Journal of Molecular Sciences, 2021)
Read-outs that look alike come from different tables or passages of the source.

Columns and labels:
Daoy = assay: MTT cytotoxicity assay, Daoy; type: cell-based, human; settings: 72 h; for IC50: 0.05–50 µM; for cytotoxicity at 50 µM: read-out: % Cytotoxicity (50 µM) DAOY;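 for all read-outs here: viability read as formazan absorbance at 570 nm after MTT reduction, three independent biological replicates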
HEK293 = assay: MTT cytotoxicity assay, HEK293 control cells; type: cell-based, human; settings: MTT, 72 h, non-cancer cell line;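 note: Read-out is formazan absorbance at 570 nm from MTT reduction in 96-well plates, with three independent biological replicates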
HCT116 = assay: MTT cytotoxicity assay, HCT116; type: cell-based; settings: Homo sapiens; for cytotoxicity at 50 µM: read-out: % Cytotoxicity (50 µM) HCT116; for IC50: 0.05–50 µM
Description: (§1) Cytotoxicity assays were performed by using the MTT reduction method as described previously. Briefly, cancer cell lines were plated in flat-bottom 96-well plates at a cell concentration of 5 × 10^3 cells/well for the fastest growing lines, such as HEK293 and HT29 cells and 1 × 10^4 cells/well for more slowly growing lines, such as HCT116, H1975, BxPC-3, AsPC-1, B16-F10 and DAOY. Then, cells were incubated with the synthesised compounds at different concentrations (from 0.05 to 50 µM) in 200 µL with 10% FBS in RPMI 1640 or DMEM F12 culture medium at 37 °C for 72 h. Later, 10 µL of MTT were added at a final concentration of 0.5 mg/mL, incubated at 37 °C for 4 h, and then solubilised with 10% sodium dodecyl sulphate (SDS) in 0.1 mM HCl and incubated overnight at 37 °C. Formazan formation was measured at 570 nm in a multiwell plate reader (Cytation 5, Biotek Instruments, Winooski, VT, USA). Three independent biological replicates were performed.

HT29 = assay: MTT cytotoxicity assay, HT29; type: cell-based; settings: Homo sapiens; for cytotoxicity at 50 µM: read-out: % Cytotoxicity (50 µM) HT29; for IC50: 0.05–50 µM
Description: as §1

H1975 = assay: MTT cytotoxicity assay, H1975; type: cell-based; settings: Homo sapiens; for cytotoxicity at 50 µM: read-out: % Cytotoxicity (50 µM) H1975; for IC50: 0.05–50 µM
Description: as §1

AsPC-1 = assay: MTT cytotoxicity assay, AsPC-1; type: cell-based; settings: Homo sapiens, ASPC1, 72 h, 0.05–50 µM
Description: as §1

BxPC-3 = assay: MTT cytotoxicity assay, BxPC-3; type: cell-based; settings: Homo sapiens, 72 h, 0.05–50 µM
Description: as §1

[1] = MTT cytotoxicity assay, HEK293 control cells; type: cell-based, human; settings: human, HEK293 cells; 50 µM, 72 h, MTT;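 note: Read-out is formazan absorbance at 570 nm from MTT reduction in 96-well plates, with three independent biological replicates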

Structure (SMILES)	cytotoxicity at 72 h, 50 µM [1] [%]	cytotoxicity at 50 µM (HCT116; HCT-116, 50 µM, 72 h, MTT) [%]	cytotoxicity at 50 µM (HT29; HT-29, 50 µM, 72 h, MTT) [%]	cytotoxicity at 50 µM (Daoy; Homo sapiens, Daoy, 50 µM, MTT) [%]	cytotoxicity at 50 µM (H1975; NCI-H1975, 50 µM, 72 h, MTT) [%]	melting point [°C]	other results
N.N.[Cl][Pt][Cl] [Cisplatin, reference compound]	–	–	–	–	–	–	IC50 (Daoy; MTT): 12 ± 0.7 µM; IC50 (HEK293): 12 ± 1.4 µM
CCCCCn1cnc2c(-c3ccc(OC(F)(F)F)cc3)nc(NC3CCCC3)nc21 [Compound 4b, N-cyclopentyl-9-pentyl-6-(4-(trifluoromethoxy)phenyl)-9H-purin-2-amine]	< 50	–	–	–	–	–	cytotoxicity at 50 µM (HCT116; HCT-116, 72 h): 53 ± 0.9%; IC50 (HCT116; HCT-116, MTT, 72 h): 47 ± 0.9 µM; cytotoxicity at 50 µM (HT29; HT-29, 72 h): < 50%; IC50 (HT29; HT-29, MTT, 72 h): > 50 µM; IC50 (Daoy; Homo sapiens, Daoy, MTT): > 50 µM; cytotoxicity at 50 µM (Daoy; Homo sapiens, Daoy): 94 ± 0.4%; cytotoxicity at 50 µM (H1975; NCI-H1975, 72 h): 30 ± 1%; IC50 (H1975; NCI-H1975, MTT, 72 h): 30 ± 1 µM; IC50 (AsPC-1): 23.2 ± 0.2 µM; IC50 (BxPC-3): > 50 µM; IC50 (HEK293; Homo sapiens, HEK293): > 50 µM
CCCCn1cnc2c(-c3ccc(OC(F)(F)F)cc3)nc(NC3CCCCC3)nc21 [Compound 4d, 9-Butyl-N-cyclohexyl-6-(4-(trifluoromethoxy)phenyl)-9H-purin-2-amine]	< 50	< 50	< 50	< 50	< 50	–	–
CCCCCCn1cnc2c(-c3ccc(OC(F)(F)F)cc3)nc(NC3CCCCC3)nc21 [Compound 4f, N-cyclohexyl-9-hexyl-6-(4-(trifluoromethoxy)phenyl)-9H-purin-2-amine]	< 50	< 50	< 50	< 50	< 50	84 to 86	–
CCCCn1cnc2c(-c3ccc(OC(F)(F)F)cc3)nc(NCC3CCCCC3)nc21 [Compound 4g, 9-Butyl-N-(cyclohexylmethyl)-6-(4-(trifluoromethoxy)phenyl)-9H-purin-2-amine]	< 50	< 50	< 50	< 50	< 50	88 to 89	–
CCCCCCn1cnc2c(-c3ccc(OC(F)(F)F)cc3)nc(NCC3CCCCC3)nc21 [Compound 4i, N-(cyclohexylmethyl)-9-hexyl-6-(4-(trifluoromethoxy)phenyl)-9H-purin-2-amine]	< 50	< 50	< 50	< 50	< 50	–	–
CCCCCn1cnc2c(-c3ccc(OC(F)(F)F)cc3)nc(N3CCN(c4ccccc4)CC3)nc21 [Compound 4j, 9-Pentyl-2-(4-phenylpiperazin-1-yl)-6-(4-(trifluoromethoxy)phenyl)-9H-purine]	< 50	< 50	< 50	< 50	< 50	–	–
CCCCCCn1cnc2c(-c3ccc(OC(F)(F)F)cc3)nc(N3CCN(c4ccccc4)CC3)nc21 [Compound 4k, 9-Hexyl-2-(4-phenylpiperazin-1-yl)-6-(4-(trifluoromethoxy)phenyl)-9H-purine]	< 50	< 50	< 50	< 50	< 50	99 to 101	–
CCCCCn1cnc2c(-c3ccc(OC(F)(F)F)cc3)nc(N3CCN(c4ccc(Cl)cc4)CC3)nc21 [Compound 4l, 9-Pentyl-2-(4-(4-clorophenyl)piperazin-1-yl)-6-(4-(trifluoromethoxy)phenyl)-9H-purine]	< 50	< 50	< 50	< 50	< 50	147 to 149	–
CCCCCCn1cnc2c(-c3ccc(OC(F)(F)F)cc3)nc(N3CCN(c4ccc(Cl)cc4)CC3)nc21 [Compound 4m, 2-(4-(4-Chlorophenyl)piperazin-1-yl)-9-hexyl-6-(4-(trifluoromethoxy)phenyl)-9H-purine]	< 50	< 50	< 50	< 50	< 50	126 to 128	–
CCCCCn1cnc2c(-c3ccc(OC(F)(F)F)cc3)nc(N3CCN(c4ccc([N+](=O)[O-])cc4)CC3)nc21 [Compound 4n, 9-Pentyl-2-(4-(4-nitrophenyl)piperazin-1-yl)-6-(4-(trifluoromethoxy)phenyl)-9H-purine]	< 50	< 50	< 50	< 50	< 50	180 to 181	–
CCCCCCn1cnc2c(-c3ccc(OC(F)(F)F)cc3)nc(N3CCN(c4ccc([N+](=O)[O-])cc4)CC3)nc21 [Compound 4o, 9-Hexyl-2-(4-(4-nitrophenyl)piperazin-1-yl)-6-(4-(trifluoromethoxy)phenyl)-9H-purine]	< 50	< 50	< 50	< 50	< 50	142 to 144	–
CCCCCn1cnc2c(-c3ccc(OC(F)(F)F)cc3)nc(N3CCN(c4ccc(OC)cc4)CC3)nc21 [Compound 4p, 9-Pentyl-2-(4-(4-methoxyphenyl)piperazin-1-yl)-6-(4-(trifluoromethoxy)phenyl)-9H-purine]	< 50	< 50	< 50	< 50	< 50	118 to 120	–
CCCCCCn1cnc2c(-c3ccc(OC(F)(F)F)cc3)nc(N3CCN(c4ccc(OC)cc4)CC3)nc21 [Compound 4q, 9-Hexyl-2-(4-(4-methoxyphenyl)piperazin-1-yl)-6-(4-(trifluoromethoxy)phenyl)-9H-purine]	< 50	< 50	< 50	< 50	< 50	144 to 145	–
O=c1[nH]cc(F)c(=O)[nH]1 [Compound 5-FU, 5-fluorouracil, reference compound]	< 50	62 ± 1.3	66 ± 4.9	–	–	–	IC50 (HCT116; HCT-116, MTT, 72 h): 31 ± 0.3 µM; IC50 (HT29; HT-29, MTT, 72 h): 0.51 ± 0.06 µM; IC50 (HEK293; Homo sapiens, HEK293): 0.83 ± 0.07 µM
COc1cc([C@@H]2c3cc4c(cc3[C@@H](O[C@@H]3O[C@@H]5CO[C@@H](C)O[C@H]5[C@H](O)[C@H]3O)[C@H]3COC(=O)[C@H]23)OCO4)cc(OC)c1O [Etoposide, reference compound]	65 ± 0.7	90 ± 0.5	–	–	60 ± 1.1	–	IC50 (HCT116; HCT-116, MTT, 72 h): 9.8 ± 0.5 µM; IC50 (H1975; NCI-H1975, MTT, 72 h): 40 ± 0.2 µM; IC50 (HEK293; Homo sapiens, HEK293): 8.4 ± 0.7 µM
Nc1ccn([C@@H]2O[C@H](CO)[C@@H](O)C2(F)F)c(=O)n1 [Gemcitabine, reference compound]	–	–	–	–	–	–	IC50 (AsPC-1): 0.3 ± 0.09 µM; IC50 (BxPC-3): 0.2 ± 0.07 µM; IC50 (HEK293; Homo sapiens, HEK293): 7.5 ± 0.6 µM
